Experimental data: paper PMC8778526, “N-Alkylmorpholines: Potent Dermal and Transdermal Skin Permeation Enhancers” (Pharmaceutics, 2021)
Converted amounts (≈) assume the structure as drawn. Where two headings read alike, the source gives them in different places.

Experiments:
porcine skin [1] = test: ATR-FTIR of enhancer-treated skin; settings: skin treated 24 h with 1% enhancer in 60% PG
Procedure: ATR-FTIR is a powerful method to investigate the interactions of enhancers with SC lipids and proteins. […] Pure distilled water or 60% aqueous PG were applied as controls. […] IR spectra of the skin surface were recorded by an IR spectrometer (Nicolet iZ10, Thermo Scientific, Waltham, MA, USA), equipped with a single reflection […] ZnSe crystal (PIKE Technologies, Madison, WI, USA) at constant clamping pressure. […] Collected spectra were normalised, to reduce potential variations in the overall intensity of the spectra. Selected regions (amide I, amide II and CH2 stretching vibration bands) were fitted in Origin Pro (OriginLab, Wellesley Hills, MA, USA). The position, height and area of these selected peaks were compared among the particular spectra and the variances between peak characteristics were statistically evaluated by GraphPad Prism® software (GraphPad Software, Inc., La Jolla, CA, USA).

[2] = cited from earlier work
porcine skin [3] = test: In vitro permeation experiment, Franz-type diffusion cells; settings: for Jss, steady-state flux of the model drug: control, pure vehicle 60% PG without enhancer; for ER, enhancement ratio: flux with/without 1% enhancer
[4] = as above; settings: pig, pH 7.4
[5] = Effect of enhancers on drug solubility in the donor phase; settings: 32 °C, aqueous with cosolvent or surfactant or cyclodextrin, thermodynamic from solid
porcine skin [6] = test: Entrapment of model drug in the skin after the permeation experiment; format: in vitro ADME; settings: control without enhancer
Procedure: At the end of the permeation experiment, the Franz diffusion cells were dismounted and the skin surface was thoroughly washed by distilled water and PBS. The skin area, which was exposed to the donor phase, was cut out, weighed and extracted by 5 mL of the respective mobile phase by shaking for 24 h at 32 °C on a laboratory shaker. The extracts were then filtered through 0.45 µm cellulose filters to eliminate skin residues and analysed by HPLC. Drug concentration in the skin, expressed as mg of model drugs per g of the skin tissue was calculated by dividing permeants’ amounts by the respective skin weights.

[7] = cited from earlier work; remark: listed apart in the source
porcine skin [8] = test: Skin electrical impedance measurements; settings: 1% enhancer, 48 h; control ratio set to 1
Procedure: For monitoring the skin integrity and characterisation of the permeation enhancers’ effect, the electrical impedance of each skin was measured, using an LCR 4080 multimeter (Voltcraft, Hirschau, Germany), set in parallel-equivalent mode with an alternating current frequency of 120 Hz. The measurements were carried out according to established protocols. The measurements were performed in the Franz diffusion cells. After the initial hydration and equilibration, the donor compartments were filled with 500 μL of PBS. One wire of the multimeter was placed in PBS in the acceptor, the other in the donor phase and the electrical impedance was determined. The next measurement was taken after the 48 h permeation experiment. When the donor samples ([…]) were removed, they were replaced with 500 μL PBS and the electrical impedance was re-measured. The electrical impedance ratio (EIR) was calculated for each cell as (2) EIR=EI1/EI2 where EI1 [kΩ] is electrical impedance before and EI2 [kΩ] after the 48 h treatment by the donor formulation.

porcine skin [9] = test: Transepidermal water loss (TEWL) measurements, reversibility of enhancer effect; settings: for TEWL after the 2 h treatment: 1% enhancer in 60% PG applied 2 h; for TEWL after the 24 h treatment: 1% enhancer in 60% PG applied 24 h; for TEWL after 20 h: after 2 h treatment and enhancer removal; for TEWL within 24 h after the enhancers' removal: after 24 h treatment; for reversibility of the effect on the skin barrier: short-term 2 h application
Procedure: The reversibility of the enhancers’ effects was studied by evaluation of the difference in the water loss through the intact and enhancer-treated skin. […] The TEWL measurements were carried out according to established protocols. The skin samples were mounted into Franz diffusion cells, with the acceptor compartments filled with PBS pH 7.4 and placed in a water bath at 32 °C to hydrate and equilibrate. At first, the base TEWL values of untreated skin samples were measured. Each of the Franz diffusion cells was removed from the water bath, dried completely with compressed air and inserted into a holder. Then the TEWL probe was placed 1.0 cm above the skin surface. The measuring time was on average 80–100 s. […] The cells were then incubated at 32 °C. The donor samples were removed after 2 h or 24 h and the skin surface was washed with 0.5 mL of PBS, gently blotted dry and thoroughly dried with compressed air. After the enhancer was removed, TEWL was measured at predetermined intervals over 42 or 50 h.

[10] = test system: human keratinocytes HaCaT; test: Cytotoxicity, CCK-8 viability assay; format: cell-based; settings: read-out: IC50, concentration causing 50% decrease in cell viability, 24 h incubation
Procedure: Cytotoxicity of the three best enhancers (Mo10, Mo12, Mo14) was evaluated on non-malignant spontaneously immortalised human keratinocytes HaCaT (Cell Lines Service, Eppelheim, Germany). The cell line was cultivated in Dulbecco’s Modified Eagle’s Medium (DMEM, Sigma Aldrich, St. Luis, MO, USA), supplemented with 10% Fetal Bovine Serum (Sigma Aldrich, St. Luis, MO, USA) in a Petri dish at 37 °C in a humidified atmosphere of 5% CO2. Cells were subcultured two times a week. For cytotoxicity experiments, 96-well plates were seeded with cells (at a density of 10,000 cells per well) in 100 μL of culture medium and incubated at 37 °C in a humidified atmosphere of 5% CO2 for 24 h.
The enhancers were dissolved in DMEM, left in an ultrasonic bath for 15 min and then kept at 37 °C overnight. On the next day, 10 μL of the particular enhancer solution was added to 100 μL of cell suspensions, to receive final enhancer concentrations in the range of 0.9–110 μM (concentrations determined according to our preliminary testing). The cells were incubated with tested compounds for 24 h. Then, the cell viability was determined, using the Cell Counting Kit-8 (CCK-8, Sigma Aldrich, St. Luis, MO, USA). The cells were incubated with 10 μL of the CCK-8 for 2 h. Thereafter, absorbance was measured at 450 nm, using the Infinite 200 PRO microplate reader (Tecan Austria GmbH, Austria). The mean optical density (absorbance) was used to calculate the percentage of cell viability as follows: percentage of cell viability=Atreatment−Ablank/Acontrol −Ablank×100 %, where A is the absorbance.

[11] = ref Drugbank, ALOGPS; cited from earlier work
[12] = donor phase: 60% PG in distilled water without enhancer

CCCCCCCCCCCCN1CCCCCC1=O [Azone, N-dodecylazacykloheptan-2-on, reference compound]
vasCH2, position of asymmetric CH2 stretching vibration (porcine skin [1]): 2921.84 ± 0.34 cm⁻¹
vsCH2, position of symmetric CH2 stretching vibration (porcine skin [1]): 2851.16 ± 0.21 * cm^−1
IC50 ([2]; ref 57): 49 µM
IC50 ([2]; ref 58): 117 µM

CCCCCCCCCCCCOC(=O)CCCCCN(C)C [DDAK]
IC50 ([2]; ref 29): 76 µM

O=C(O)Cc1ccccc1Nc1c(Cl)cccc1Cl [DF, diclofenac sodium]
Jss, steady-state flux of the model drug (porcine skin [3]): 5.74 ± 1.04 µg·cm^−2·h^−1
Papp at 48 h [4]: 0.0275 ×10⁻⁶ cm/s
solubility at 48 h [5, 12]: 57800 ± 2550 µg/mL
amount of the model drug in the skin (porcine skin [6]): 380.10 ± 50.52 μg·gskin^−1
solubility in PBS ([7]; ref 27): 5150 µg/mL

COc1ccc2c(c1)c(CC(=O)O)c(C)n2C(=O)c1ccc(Cl)cc1 [IND, indomethacin]
Jss, steady-state flux of the model drug (porcine skin [3]): 0.51 ± 0.09 µg·cm^−2·h^−1
Papp at 48 h [4]: 0.104 ×10⁻⁶ cm/s
solubility at 48 h [5, 12]: 950 ± 510 µg/mL
amount of the model drug in the skin (porcine skin [6]): 32.43 ± 6.98 μg·gskin^−1
solubility in PBS ([7]; ref 26): 650 µg/mL (≈ 1.82 mM)

CCCCN1CC(CO)OC(OC)C1 (stereo not shown) [Mo4]
ER, enhancement ratio (porcine skin [3]; permeant DF): 1.04
ER, enhancement ratio (porcine skin [3]; permeant IND): 5.78
ER, enhancement ratio (porcine skin [3]; permeant TH): 1.38

CCCCCCCCN1CC(CO)OC(OC)C1 (stereo not shown) [Mo8]
ER, enhancement ratio (porcine skin [3]; permeant DF): 1.17
ER, enhancement ratio (porcine skin [3]; permeant IND): 6.28
ER, enhancement ratio (porcine skin [3]; permeant TH): 4.63

CCCCCCCCCCN1CC(CO)OC(OC)C1 (stereo not shown) [Mo10]
vasCH2, position of asymmetric CH2 stretching vibration (porcine skin [1]): 2921.91 ± 0.40 cm⁻¹
vsCH2, position of symmetric CH2 stretching vibration (porcine skin [1]): 2852.58 ± 0.71 * cm^−1
ER, enhancement ratio (porcine skin [3]; permeant DF): 1.43
ER, enhancement ratio (porcine skin [3]; permeant IND): 7.80
ER, enhancement ratio (porcine skin [3]; permeant TH): 9.87
EIR, electrical impedance ratio (before/after treatment) (porcine skin [8]): 1.66 ± 0.19
TEWL after the 2 h treatment (porcine skin [9]): 11.7 ± 0.8 g·m^−2·h^−1
TEWL after the 24 h treatment (porcine skin [9]): 15.6 ± 2.2 g·m^−2·h^−1
TEWL after 20 h (porcine skin [9]): 4.8 ± 0.1 g·m^−2·h^−1
TEWL within 24 h after the enhancers' removal (porcine skin [9]): 4.3 ± 0.7 g·m^−2·h^−1
reversibility of the effect on the skin barrier (porcine skin [9]): reversible
IC50 [10]: 94 ± 1.5 µM

CCCCCCCCCCCCN1CC(CO)OC(OC)C1 (stereo not shown) [Mo12]
vasCH2, position of asymmetric CH2 stretching vibration (porcine skin [1]): 2921.14 ± 0.61 cm⁻¹
vsCH2, position of symmetric CH2 stretching vibration (porcine skin [1]): 2851.56 ± 0.23 * cm^−1
ER, enhancement ratio (porcine skin [3]; permeant DF): 1.81
ER, enhancement ratio (porcine skin [3]; permeant IND): 10.01
ER, enhancement ratio (porcine skin [3]; permeant TH): 14.53
EIR, electrical impedance ratio (before/after treatment) (porcine skin [8]): 1.60 ± 0.13
TEWL after the 2 h treatment (porcine skin [9]): 8.2 ± 0.3 g·m^−2·h^−1
TEWL after the 24 h treatment (porcine skin [9]): 18.5 ± 1.2 g·m^−2·h^−1
TEWL after 20 h (porcine skin [9]): 3.2 ± 0.3 g·m^−2·h^−1
TEWL within 24 h after the enhancers' removal (porcine skin [9]): 9.5 ± 0.1 g·m^−2·h^−1
reversibility of the effect on the skin barrier (porcine skin [9]): reversible
IC50 [10]: 41 ± 0.8 µM

CCCCCCCCCCCCCCN1CC(CO)OC(OC)C1 (stereo not shown) [Mo14]
vasCH2, position of asymmetric CH2 stretching vibration (porcine skin [1]): 2919.48 ± 0.42 cm⁻¹
vsCH2, position of symmetric CH2 stretching vibration (porcine skin [1]): 2850.74 ± 0.14 cm⁻¹
ER, enhancement ratio (porcine skin [3]; permeant DF): 2.58
ER, enhancement ratio (porcine skin [3]; permeant IND): 9.10
ER, enhancement ratio (porcine skin [3]; permeant TH): 8.67
EIR, electrical impedance ratio (before/after treatment) (porcine skin [8]): 1.64 ± 0.14
TEWL after the 2 h treatment (porcine skin [9]): 9.0 ± 0.4 g·m^−2·h^−1
TEWL after the 24 h treatment (porcine skin [9]): 18.1 ± 0.8 g·m^−2·h^−1
TEWL after 20 h (porcine skin [9]): 4.6 ± 0.7 g·m^−2·h^−1
TEWL within 24 h after the enhancers' removal (porcine skin [9]): 4.7 ± 0.1 g·m^−2·h^−1
reversibility of the effect on the skin barrier (porcine skin [9]): reversible
IC50 [10]: 41.5 ± 1.5 µM

CCCCCCCCC=CCCCCCCCCN1CC(CO)OC(OC)C1 (stereo not shown) [Mo18/1]
vasCH2, position of asymmetric CH2 stretching vibration (porcine skin [1]): 2920.35 ± 0.36 cm⁻¹
vsCH2, position of symmetric CH2 stretching vibration (porcine skin [1]): 2850.76 ± 0.15 cm⁻¹
ER, enhancement ratio (porcine skin [3]; permeant DF): 1.94
ER, enhancement ratio (porcine skin [3]; permeant IND): 3.94
ER, enhancement ratio (porcine skin [3]; permeant TH): 5.01

CCCCCCCCCCCCCCCCCCN1CC(CO)OC(OC)C1 (stereo not shown) [Mo18]
ER, enhancement ratio (porcine skin [3]; permeant DF): 1.14
ER, enhancement ratio (porcine skin [3]; permeant IND): 1.95
ER, enhancement ratio (porcine skin [3]; permeant TH): 3.06

Cn1c(=O)c2[nH]cnc2n(C)c1=O [TH, theophylline]
logP [11]: −0.02
solubility at 48 h [5]: 20000 ± 620 µg/mL
solubility in PBS ([7]; ref 25): 7650 µg/mL (≈ 42.5 mM)

CCCCCCCCCCCCOC(=O)CCCCCN.CCCCCCCCCCCCOC(=O)CCCCCNC(=O)O [Transkarbam 12]
IC50 ([2]; ref 29): 21 µM

dodecyl amino glucoside
IC50 ([2]; ref 34): 24 µM
